Columns and labels:
786-0 = test: cells; conditions: Homo sapiens, 786-0, 48 h; for CC50: read-out: LC50
Description: Cytotoxicity against human 786-0 cells after 48 hrs by sulforhodamine B assay

HT-29 = test: Cytotoxicity against human HT-29 cells assessed as cell growth at 10^-5 M after 48 hrs by sulforhodamine B assay; format: functional; conditions: HT-29, 48 h, read-out: Activity
[1] = Cytotoxicity against human UACC62 cells assessed as cell growth at 10^-5 M after 48 hrs by sulforhodamine B assay; format: functional; conditions: UACC-62, 48 h, read-out: Activity
[2] = Cytotoxicity against human OVCAR4 cells assessed as cell growth at 10^-5 M after 48 hrs by sulforhodamine B assay; format: functional; conditions: OVCAR-4, 48 h, read-out: Activity
EKVX = test: Cytotoxicity against human EKVX cells assessed as cell growth at 10^-5 M after 48 hrs by sulforhodamine B assay; format: functional; conditions: read-out: Activity
MDA-MB-231 = test: cells; conditions: Homo sapiens, MDA-MB-231, 48 h; for CC50: read-out: LC50
Description: Cytotoxicity against human MDA-MB-231 cells after 48 hrs by sulforhodamine B assay

SK-MEL-2 = test: Cytotoxicity against human SK-MEL-2 cells assessed as cell growth at 10^-5 M after 48 hrs by sulforhodamine B assay; format: functional; conditions: SK-MEL-2, 48 h, read-out: Activity
SN12C = test: Cytotoxicity against human SN12C cells assessed as cell growth at 10^-5 M after 48 hrs by sulforhodamine B assay; format: functional; conditions: read-out: Activity
M14 = test: cells; conditions: Homo sapiens, M14, 48 h; for CC50: read-out: LC50
Description: Cytotoxicity against human M14 cells after 48 hrs by sulforhodamine B assay

K562 = test: Cytotoxicity against human K562 cells assessed as cell growth at 10^-5 M after 48 hrs by sulforhodamine B assay; format: functional; conditions: K562, 48 h, read-out: Activity
Dihydrofolate reductase = target: T1, Dihydrofolate reductase (Homo sapiens, UniProt P00374); test: Inhibition of human DHFR assessed as conversion of dihydrofolic acid to tetrahydrfolic acid by enzyme immunoassay in presence of NADPH
T1 sequence (P00374 whole entry): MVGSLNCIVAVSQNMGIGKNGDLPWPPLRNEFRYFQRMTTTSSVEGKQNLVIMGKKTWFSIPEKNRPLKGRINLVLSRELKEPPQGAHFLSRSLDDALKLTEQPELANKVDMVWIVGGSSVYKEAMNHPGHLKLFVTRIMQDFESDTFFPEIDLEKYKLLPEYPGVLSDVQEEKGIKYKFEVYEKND

A549 = test: cells; conditions: Homo sapiens, A549, 48 h; for CC50: read-out: LC50
Description: Cytotoxicity against human A549 cells after 48 hrs by sulforhodamine B assay

cells [3] = conditions: Homo sapiens, UACC-257, 48 h; for CC50: read-out: LC50
Description: Cytotoxicity against human UACC257 cells after 48 hrs by sulforhodamine B assay

cells [4] = conditions: Homo sapiens, UO-31, 48 h; for CC50: read-out: LC50
Description: Cytotoxicity against human UO31 cells after 48 hrs by sulforhodamine B assay

[5] = Cytotoxicity against human HL-60(TB) cells assessed as cell growth at 10^-5 M after 48 hrs by sulforhodamine B assay; format: functional; conditions: HL-60, 48 h, read-out: Activity
[6] = Cytotoxicity against human MOLT4 cells assessed as cell growth at 10^-5 M after 48 hrs by sulforhodamine B assay; format: functional; conditions: MOLT-4, 48 h, read-out: Activity
[7] = Cytotoxicity against human IGROV1 cells assessed as cell growth at 10^-5 M after 48 hrs by sulforhodamine B assay; format: functional; conditions: IGROV-1, 48 h, read-out: Activity
[8] = Cytotoxicity against human BT549 cells assessed as cell growth at 10^-5 M after 48 hrs by sulforhodamine B assay; format: functional; conditions: BT-549, 48 h, read-out: Activity
MCF7 = test: Cytotoxicity against human MCF7 cells assessed as cell growth at 10^-5 M after 48 hrs by sulforhodamine B assay; format: functional; conditions: MCF7, 48 h, read-out: Activity
SK-MEL-28 [9] = test: cells; conditions: Homo sapiens, SK-MEL-28, 48 h; for CC50: read-out: LC50
Description: Cytotoxicity against human SK-MEL-28 cells after 48 hrs by sulforhodamine B assay

cells [10] = conditions: Homo sapiens, SF-295, 48 h; for CC50: read-out: LC50
Description: Cytotoxicity against human SF295 cells after 48 hrs by sulforhodamine B assay

T47D = test: Cytotoxicity against human T47D cells assessed as cell growth at 10^-5 M after 48 hrs by sulforhodamine B assay; format: functional; conditions: read-out: Activity
cells [11] = conditions: Homo sapiens, RPMI-8226, 48 h; for CC50: read-out: LC50
Description: Cytotoxicity against human RPMI8226 cells after 48 hrs by sulforhodamine B assay

Malme-3M = test: cells; conditions: Homo sapiens, 48 h; for CC50: read-out: LC50
Description: Cytotoxicity against human MALME-3M cells after 48 hrs by sulforhodamine B assay

[12] = Cytotoxicity against human SKOV3 cells assessed as cell growth at 10^-5 M after 48 hrs by sulforhodamine B assay; format: functional; conditions: SK-OV-3, 48 h, read-out: Activity
U-251 = test: cells; conditions: Homo sapiens, U-251, 48 h; for CC50: read-out: LC50
Description: Cytotoxicity against human U251 cells after 48 hrs by sulforhodamine B assay

cells [13] = conditions: Homo sapiens, PC-3, 48 h; for CC50: read-out: LC50
Description: Cytotoxicity against human PC3 cells after 48 hrs by sulforhodamine B assay

[14] = Cytotoxicity against human RXF393 cells assessed as cell growth at 10^-5 M after 48 hrs by sulforhodamine B assay; format: functional; conditions: RXF 393, 48 h, read-out: Activity
KM12 = test: cells; conditions: Homo sapiens, KM12, 48 h
Description: Cytotoxicity against human KM12 cells after 48 hrs by sulforhodamine B assay

[15] = Cytotoxicity against human HCC2998 cells assessed as cell growth at 10^-5 M after 48 hrs by sulforhodamine B assay; format: functional; conditions: HCC 2998, 48 h, read-out: Activity
cells [16] = conditions: Homo sapiens, HOP-62, 48 h; for CC50: read-out: LC50
Description: Cytotoxicity against human HOP62 cells after 48 hrs by sulforhodamine B assay

A498 = test: cells; conditions: Homo sapiens, A498, 48 h; for CC50: read-out: LC50
Description: Cytotoxicity against human A498 cells after 48 hrs by sulforhodamine B assay

[17] = Cytotoxicity against human OVCAR3 cells assessed as cell growth at 10^-5 M after 48 hrs by sulforhodamine B assay; format: functional; conditions: OVCAR-3, 48 h, read-out: Activity
cells [18] = conditions: Homo sapiens, SF-268, 48 h; for CC50: read-out: LC50
Description: Cytotoxicity against human SF268 cells after 48 hrs by sulforhodamine B assay

SK-MEL-28 [19] = test: Cytotoxicity against human SK-MEL-28 cells assessed as cell growth at 10^-5 M after 48 hrs by sulforhodamine B assay; format: functional; conditions: SK-MEL-28, 48 h, read-out: Activity

COc1cc(/C=C2\C(=O)Nc3ccccc32)cc(OC)c1O
GI50 (786-0): 7.1 µM | TGI (786-0): 27.5 µM | CC50 (786-0): 91.2 µM | growth at 10 µM (HT-29): 75.7% | growth at 10 µM [1]: 72.1% | growth at 10 µM [2]: 89.1% | growth at 10 µM (EKVX): 110% | GI50 (MDA-MB-231): 3.1 µM | TGI (MDA-MB-231): 20.8 µM | CC50 (MDA-MB-231): > 100 µM | growth at 10 µM (SK-MEL-2): 50.4% | growth at 10 µM (SN12C): 77% | GI50 (M14): 2.7 µM | TGI (M14): 10.9 µM | CC50 (M14): 67.6 µM | growth at 10 µM (K562): 7.58% | IC50 (Dihydrofolate reductase): 0.5 µM | GI50 (A549): 4.9 µM | TGI (A549): 47.8 µM | CC50 (A549): > 100 µM | GI50 (cells [3]): 1.8 µM | TGI (cells [3]): 18.6 µM | CC50 (cells [3]): 67.6 µM | GI50 (cells [4]): 2.6 µM | TGI (cells [4]): 19.9 µM | CC50 (cells [4]): > 100 µM | growth at 10 µM [5]: 1.88% | growth at 10 µM [6]: 0.62% | growth at 10 µM [7]: 70.2% | growth at 10 µM [8]: 74.8% | growth at 10 µM (MCF7): 30.8% | GI50 (SK-MEL-28 [9]): 5 µM | TGI (SK-MEL-28 [9]): 22.9 µM | CC50 (SK-MEL-28 [9]): 83.2 µM | GI50 (cells [10]): 3 µM | TGI (cells [10]): 30.9 µM | CC50 (cells [10]): > 100 µM | growth at 10 µM (T47D): 49.6% | GI50 (cells [11]): 5.5 µM | TGI (cells [11]): 27.5 µM | CC50 (cells [11]): > 100 µM | GI50 (Malme-3M): 2.9 µM | TGI (Malme-3M): 21.8 µM | CC50 (Malme-3M): > 100 µM | growth at 10 µM [12]: 93.5% | GI50 (U-251): 2.4 µM | TGI (U-251): 14.1 µM | CC50 (U-251): 42.6 µM | GI50 (cells [13]): 20.8 µM | TGI (cells [13]): > 100 µM | CC50 (cells [13]): > 100 µM | growth at 10 µM [14]: 71.3% | GI50 (KM12): 2.5 µM | TGI (KM12): 11.5 µM | CC50 (KM12; read-out: LC50): 36.3 µM | growth at 10 µM [15]: 78.8% | GI50 (cells [16]): 4.3 µM | TGI (cells [16]): 23.4 µM | CC50 (cells [16]): > 100 µM | GI50 (A498): 2.1 µM | TGI (A498): 15.8 µM | CC50 (A498): > 100 µM | growth at 10 µM [17]: 46.9% | GI50 (cells [18]): 4.3 µM | TGI (cells [18]): 28.8 µM | CC50 (cells [18]): > 100 µM | growth at 10 µM (SK-MEL-28 [19]): 90.2%

CC1=NN(c2cccc(Cl)c2)C(=O)/C1=C\c1cn(CC(O)Cn2cc(/C=C3\C(=O)N(c4cccc(Cl)c4)N=C3C)c3ccccc32)c2ccccc12
growth at 10 µM (HT-29): 112% | growth at 10 µM [1]: 112% | growth at 10 µM [2]: 103% | growth at 10 µM (EKVX): 101% | growth at 10 µM (SK-MEL-2): 115% | growth at 10 µM (SN12C): 99.7% | growth at 10 µM (K562): 101% | growth at 10 µM [5]: 109% | growth at 10 µM [6]: 104% | growth at 10 µM [7]: 104% | growth at 10 µM [8]: 109% | growth at 10 µM (MCF7): 97.9% | growth at 10 µM (T47D): 88% | growth at 10 µM [12]: 110% | growth at 10 µM [14]: 116% | growth at 10 µM [15]: 102% | growth at 10 µM [17]: 102% | growth at 10 µM (SK-MEL-28 [19]): 109%

O=C1Nc2ccccc2/C1=C/c1cn(CC(O)Cn2cc(/C=C3\C(=O)Nc4ccccc43)c3ccccc32)c2ccccc12 (configuration not stated)
GI50 (786-0): 1.6 µM | TGI (786-0): 3.2 µM | CC50 (786-0): 6.1 µM | growth at 10 µM (HT-29): -20.2% | growth at 10 µM [1]: -75.2% | growth at 10 µM [2]: -51.7% | growth at 10 µM (EKVX): -62.3% | GI50 (MDA-MB-231): 1.2 µM | TGI (MDA-MB-231): 2.7 µM | CC50 (MDA-MB-231): 5.7 µM | growth at 10 µM (SK-MEL-2): -57.6% | growth at 10 µM (SN12C): -53.6% | GI50 (M14): 1.3 µM | TGI (M14): 2.8 µM | CC50 (M14): 6.02 µM | growth at 10 µM (K562): -16.7% | IC50 (Dihydrofolate reductase): 0.03 µM | Ki (Dihydrofolate reductase): 0.00583 µM | GI50 (A549): 1.5 µM | TGI (A549): 3.2 µM | CC50 (A549): 6.8 µM | GI50 (cells [3]): 2.3 µM | TGI (cells [3]): 4.4 µM | CC50 (cells [3]): 8.3 µM | GI50 (cells [4]): 1.2 µM | TGI (cells [4]): 2.9 µM | CC50 (cells [4]): 6.7 µM | growth at 10 µM [5]: -10.2% | growth at 10 µM [6]: -29.4% | growth at 10 µM [7]: -67.4% | growth at 10 µM [8]: -55.3% | growth at 10 µM (MCF7): -67.5% | GI50 (SK-MEL-28 [9]): 1.7 µM | TGI (SK-MEL-28 [9]): 3.5 µM | CC50 (SK-MEL-28 [9]): 6.9 µM | GI50 (cells [10]): 1.6 µM | TGI (cells [10]): 3.2 µM | CC50 (cells [10]): 6.4 µM | growth at 10 µM (T47D): -46.1% | GI50 (cells [11]): 2.1 µM | TGI (cells [11]): 5.4 µM | CC50 (cells [11]): > 100 µM | GI50 (Malme-3M): 1.5 µM | TGI (Malme-3M): 3.2 µM | CC50 (Malme-3M): 7.1 µM | growth at 10 µM [12]: -38.2% | GI50 (U-251): 1.5 µM | TGI (U-251): 2.9 µM | CC50 (U-251): 5.6 µM | GI50 (cells [13]): 1.2 µM | TGI (cells [13]): 2.6 µM | CC50 (cells [13]): 5.8 µM | growth at 10 µM [14]: -90.8% | GI50 (KM12): 1.4 µM | TGI (KM12): 3.3 µM | growth at 10 µM [15]: -16.9% | GI50 (cells [16]): 1.4 µM | TGI (cells [16]): 3.06 µM | CC50 (cells [16]): 6.6 µM | GI50 (A498): 2.2 µM | TGI (A498): 4.1 µM | CC50 (A498): 7.6 µM | growth at 10 µM [17]: -85.1% | GI50 (cells [18]): 1.7 µM | TGI (cells [18]): 3.9 µM | CC50 (cells [18]): 8.7 µM | growth at 10 µM (SK-MEL-28 [19]): -85%

Source: ChEMBL document CHEMBL3785084, “Rational modification of the lead molecule: Enhancement in the anticancer and dihydrofolate reductase inhibitory activity” (Bioorg Med Chem Lett, 2016)
